Reference: ChEMBL document CHEMBL4033774, “Class I HDAC Inhibitors: Potential New Epigenetic Therapeutics for Alcohol Use Disorder (AUD)” (J Med Chem, 2018)

How the values were obtained:
Histone deacetylase 2 = Histone deacetylase 2 (Homo sapiens, UniProt Q92769); assay: Inhibition of HDAC2 (unknown origin)
[1] = molecular target: T1, Protein deacetylase HDAC6 (Homo sapiens, UniProt Q9UBN7); assay: Inhibition of HDAC6 (unknown origin)
T1 sequence (Q9UBN7 whole entry): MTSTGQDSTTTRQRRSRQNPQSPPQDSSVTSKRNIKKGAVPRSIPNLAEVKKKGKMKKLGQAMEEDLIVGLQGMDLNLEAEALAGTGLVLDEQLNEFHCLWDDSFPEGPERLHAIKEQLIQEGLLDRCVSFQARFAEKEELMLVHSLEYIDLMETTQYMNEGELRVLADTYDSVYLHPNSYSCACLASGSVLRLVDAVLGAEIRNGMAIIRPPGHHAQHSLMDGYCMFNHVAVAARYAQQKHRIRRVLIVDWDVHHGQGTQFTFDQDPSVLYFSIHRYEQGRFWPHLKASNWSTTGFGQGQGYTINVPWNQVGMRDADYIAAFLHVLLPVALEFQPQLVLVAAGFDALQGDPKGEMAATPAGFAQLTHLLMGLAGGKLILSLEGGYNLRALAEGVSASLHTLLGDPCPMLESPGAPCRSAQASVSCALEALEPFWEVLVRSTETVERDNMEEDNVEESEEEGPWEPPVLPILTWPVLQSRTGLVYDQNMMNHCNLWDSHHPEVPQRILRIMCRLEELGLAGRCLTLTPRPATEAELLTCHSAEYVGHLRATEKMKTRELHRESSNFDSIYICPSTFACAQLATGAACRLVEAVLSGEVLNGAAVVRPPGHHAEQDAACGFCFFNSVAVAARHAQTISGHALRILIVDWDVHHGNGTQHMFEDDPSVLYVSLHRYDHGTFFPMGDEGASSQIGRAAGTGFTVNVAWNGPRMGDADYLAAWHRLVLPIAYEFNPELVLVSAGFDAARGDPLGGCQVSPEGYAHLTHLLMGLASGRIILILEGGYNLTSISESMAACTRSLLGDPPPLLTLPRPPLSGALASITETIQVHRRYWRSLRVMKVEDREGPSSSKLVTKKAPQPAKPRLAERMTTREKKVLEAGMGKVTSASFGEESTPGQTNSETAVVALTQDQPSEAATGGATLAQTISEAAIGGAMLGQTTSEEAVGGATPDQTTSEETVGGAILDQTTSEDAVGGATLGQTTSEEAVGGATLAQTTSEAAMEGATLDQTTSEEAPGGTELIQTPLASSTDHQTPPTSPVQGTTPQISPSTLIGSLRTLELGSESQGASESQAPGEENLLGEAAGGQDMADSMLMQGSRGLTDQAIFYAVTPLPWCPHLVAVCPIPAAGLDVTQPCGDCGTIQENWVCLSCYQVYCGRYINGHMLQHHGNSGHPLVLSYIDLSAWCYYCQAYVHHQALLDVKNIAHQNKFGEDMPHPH

Histone deacetylase 3 = Histone deacetylase 3 (Homo sapiens, UniProt O15379); assay: Inhibition of HDAC3 (unknown origin)
Chain of Histone deacetylase 3 (O15379 whole entry): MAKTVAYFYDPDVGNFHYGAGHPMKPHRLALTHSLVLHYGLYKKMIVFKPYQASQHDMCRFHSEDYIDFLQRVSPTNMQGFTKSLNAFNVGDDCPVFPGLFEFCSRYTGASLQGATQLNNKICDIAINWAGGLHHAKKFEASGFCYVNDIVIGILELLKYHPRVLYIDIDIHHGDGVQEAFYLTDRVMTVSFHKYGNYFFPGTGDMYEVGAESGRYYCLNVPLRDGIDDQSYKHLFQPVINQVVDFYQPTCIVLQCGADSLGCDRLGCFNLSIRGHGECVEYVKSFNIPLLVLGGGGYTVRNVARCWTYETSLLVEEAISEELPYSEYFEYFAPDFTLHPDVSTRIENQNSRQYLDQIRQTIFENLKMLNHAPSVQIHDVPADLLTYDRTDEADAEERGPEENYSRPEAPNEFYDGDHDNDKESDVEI

[2] = molecular target: T2, Polyamine deacetylase HDAC10 (Homo sapiens, UniProt Q969S8); assay: Inhibition of HDAC10 (unknown origin)
T2 sequence (Q969S8 whole entry): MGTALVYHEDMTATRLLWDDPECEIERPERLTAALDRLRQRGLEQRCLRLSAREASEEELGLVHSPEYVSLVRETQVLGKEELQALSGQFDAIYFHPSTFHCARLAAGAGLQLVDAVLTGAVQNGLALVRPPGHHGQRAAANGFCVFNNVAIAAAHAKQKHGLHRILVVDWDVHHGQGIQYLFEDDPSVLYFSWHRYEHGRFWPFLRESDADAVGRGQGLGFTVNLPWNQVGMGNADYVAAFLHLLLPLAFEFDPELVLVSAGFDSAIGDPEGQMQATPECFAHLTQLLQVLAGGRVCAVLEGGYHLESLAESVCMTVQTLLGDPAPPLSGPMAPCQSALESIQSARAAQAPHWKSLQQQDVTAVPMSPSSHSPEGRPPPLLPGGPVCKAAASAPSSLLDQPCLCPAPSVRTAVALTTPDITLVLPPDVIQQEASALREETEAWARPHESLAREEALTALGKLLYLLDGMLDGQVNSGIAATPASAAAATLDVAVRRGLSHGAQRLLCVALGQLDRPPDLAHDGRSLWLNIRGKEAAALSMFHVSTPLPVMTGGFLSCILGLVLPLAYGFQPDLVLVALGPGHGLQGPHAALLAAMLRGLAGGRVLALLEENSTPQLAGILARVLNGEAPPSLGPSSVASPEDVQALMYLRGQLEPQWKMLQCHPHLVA

Histone deacetylase 4 = Histone deacetylase 4 (Homo sapiens, UniProt P56524); assay: Inhibition of HDAC4 (unknown origin)
Chain of Histone deacetylase 4 (P56524 whole entry): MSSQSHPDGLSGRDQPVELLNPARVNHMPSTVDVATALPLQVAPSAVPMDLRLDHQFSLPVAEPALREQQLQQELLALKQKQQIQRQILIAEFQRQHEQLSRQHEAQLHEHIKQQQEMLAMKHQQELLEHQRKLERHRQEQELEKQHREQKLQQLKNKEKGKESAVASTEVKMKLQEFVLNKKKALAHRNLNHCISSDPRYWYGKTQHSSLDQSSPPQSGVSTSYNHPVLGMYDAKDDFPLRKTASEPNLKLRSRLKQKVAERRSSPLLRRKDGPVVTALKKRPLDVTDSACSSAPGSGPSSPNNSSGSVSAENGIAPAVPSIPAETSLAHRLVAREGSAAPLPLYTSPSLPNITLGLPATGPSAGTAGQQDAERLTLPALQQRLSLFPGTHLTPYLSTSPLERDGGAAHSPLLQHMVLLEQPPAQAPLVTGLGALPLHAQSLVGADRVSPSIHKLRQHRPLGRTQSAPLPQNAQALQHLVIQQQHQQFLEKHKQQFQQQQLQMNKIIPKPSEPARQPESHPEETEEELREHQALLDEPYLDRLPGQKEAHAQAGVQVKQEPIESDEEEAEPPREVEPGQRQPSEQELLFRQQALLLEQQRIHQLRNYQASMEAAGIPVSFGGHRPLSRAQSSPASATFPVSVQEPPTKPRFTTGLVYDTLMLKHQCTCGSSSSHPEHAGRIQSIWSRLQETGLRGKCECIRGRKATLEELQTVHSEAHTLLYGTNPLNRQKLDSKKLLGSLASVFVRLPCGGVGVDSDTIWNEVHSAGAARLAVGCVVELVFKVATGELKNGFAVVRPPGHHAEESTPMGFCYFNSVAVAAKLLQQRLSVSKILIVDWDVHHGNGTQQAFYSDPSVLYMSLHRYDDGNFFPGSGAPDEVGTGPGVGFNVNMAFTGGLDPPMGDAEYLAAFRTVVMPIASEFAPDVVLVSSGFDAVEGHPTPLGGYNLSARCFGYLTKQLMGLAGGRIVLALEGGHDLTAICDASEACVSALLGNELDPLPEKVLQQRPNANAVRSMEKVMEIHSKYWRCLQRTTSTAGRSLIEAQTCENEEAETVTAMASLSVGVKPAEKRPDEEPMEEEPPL

Histone deacetylase 1 = Histone deacetylase 1 (Homo sapiens, UniProt Q13547); assay: Inhibition of HDAC1 (unknown origin)
Chain of Histone deacetylase 1 (Q13547 whole entry): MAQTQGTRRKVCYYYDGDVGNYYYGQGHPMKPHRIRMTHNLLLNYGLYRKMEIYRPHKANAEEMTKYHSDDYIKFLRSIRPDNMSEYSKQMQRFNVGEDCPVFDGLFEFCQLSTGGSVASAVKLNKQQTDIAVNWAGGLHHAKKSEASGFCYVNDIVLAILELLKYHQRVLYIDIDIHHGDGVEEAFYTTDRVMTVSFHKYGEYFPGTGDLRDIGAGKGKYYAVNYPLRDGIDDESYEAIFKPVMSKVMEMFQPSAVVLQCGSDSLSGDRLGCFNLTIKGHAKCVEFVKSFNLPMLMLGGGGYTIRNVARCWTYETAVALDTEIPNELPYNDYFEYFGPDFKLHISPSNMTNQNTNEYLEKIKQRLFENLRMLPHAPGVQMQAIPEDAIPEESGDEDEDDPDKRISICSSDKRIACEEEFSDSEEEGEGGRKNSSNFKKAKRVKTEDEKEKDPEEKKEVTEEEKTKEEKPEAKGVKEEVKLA

Histone deacetylase 11 = molecular target: T3, Histone deacetylase 11 (Homo sapiens, UniProt Q96DB2); assay: Inhibition of HDAC11 (unknown origin)
T3 sequence (Q96DB2 whole entry): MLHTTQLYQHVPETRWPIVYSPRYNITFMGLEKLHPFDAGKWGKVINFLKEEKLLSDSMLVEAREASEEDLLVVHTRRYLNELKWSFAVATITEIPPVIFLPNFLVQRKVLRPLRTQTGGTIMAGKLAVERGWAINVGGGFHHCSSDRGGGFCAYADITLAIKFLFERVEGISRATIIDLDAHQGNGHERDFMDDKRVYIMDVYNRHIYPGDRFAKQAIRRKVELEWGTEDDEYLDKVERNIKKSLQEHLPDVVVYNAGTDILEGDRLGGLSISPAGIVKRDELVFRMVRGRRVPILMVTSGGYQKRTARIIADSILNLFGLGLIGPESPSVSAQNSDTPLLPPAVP

[3] = Lipophilicity, log P of the compound at pH 7.4; type: physicochemical; conditions: buffer
Rattus norvegicus [4] = assay: Decrease in alcohol intake in rat model of voluntary heavy drinking assessed as decrease in operant alcohol self-administration at 500 uM, icv administered twice relative to control; type: functional; parameters: scale not given: the % may be the effect or the level left
[5] = Half life in human at 2 mg/m2 dosed twice a week; type: ADME, organism-based; conditions: in vivo
Rattus norvegicus [6] = assay: Decrease in alcohol intake in rat model of voluntary heavy drinking assessed as decrease in relapse phenomenon after period of abstinence at 500 uM, icv administered twice relative to control; type: functional; parameters: scale not given: the % may be the effect or the level left
Rattus norvegicus [7] = assay: Decrease in alcohol intake in rat model of voluntary heavy drinking assessed as decrease in motivation to consume alcohol at 500 uM, icv administered twice relative to control; type: functional; parameters: scale not given: the % may be the effect or the level left
[8] = Half life in human at 6 mg/m2, po; type: ADME
Brain [9] = assay: Drug uptake in iv dosed rat brain after 90 mins by PET imaging method relative to control; type: ADME, organism-based; conditions: in vivo, 1.5 h
[10] = Lipophilicity, log D of the compound at pH 7.4; type: physicochemical; conditions: buffer
Brain [11] = assay: Drug uptake in iv dosed baboon brain after 90 mins by PET imaging method relative to control; type: ADME, organism-based; conditions: papio anubis, in vivo, 1.5 h
Rattus norvegicus [12] = assay: Decrease in alcohol intake in rat assessed as ethanol intake at 2 mg/kg, ip administered daily during last 3 days of 10 day period of two-bottel choice paradigm (reference value: 7 g/kg); type: functional
Mus musculus [13] = assay: Decrease in alcohol intake in C57BL/6J mouse at 50 mg/kg, ip relative to control; type: functional; parameters: scale not given: the % may be the effect or the level left
Mus musculus [14] = assay: Decrease in alcohol intake in C57BL/6J mouse at 100 mg/kg, ip relative to control; type: functional; parameters: scale not given: the % may be the effect or the level left
Rattus norvegicus [15] = assay: Decrease in alcohol intake in rat assessed as operant alcohol self-administration at 50 mg/kg, ip administered once in a week relative to control; type: functional; parameters: scale not given: the % may be the effect or the level left

Chain of Histone deacetylase 2 (Q92769 whole entry): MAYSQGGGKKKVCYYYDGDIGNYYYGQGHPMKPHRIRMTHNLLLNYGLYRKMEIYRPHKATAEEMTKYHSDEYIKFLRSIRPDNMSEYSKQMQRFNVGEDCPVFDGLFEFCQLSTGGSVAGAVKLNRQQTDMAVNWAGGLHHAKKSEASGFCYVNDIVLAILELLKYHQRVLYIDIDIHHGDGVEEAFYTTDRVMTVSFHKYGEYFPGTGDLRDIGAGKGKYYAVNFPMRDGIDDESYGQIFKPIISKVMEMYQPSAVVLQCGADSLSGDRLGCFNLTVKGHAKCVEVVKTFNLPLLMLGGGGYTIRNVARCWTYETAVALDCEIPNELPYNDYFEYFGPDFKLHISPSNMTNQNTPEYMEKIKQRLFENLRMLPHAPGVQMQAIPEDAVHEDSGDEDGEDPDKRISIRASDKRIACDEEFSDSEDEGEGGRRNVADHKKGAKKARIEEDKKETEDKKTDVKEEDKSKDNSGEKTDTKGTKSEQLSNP

COc1ccc(/C=C/C(=O)NO)c(-c2ccc(-c3ccccc3)cc2)c1
IC50 (Histone deacetylase 2): > 20 µM
IC50 [1]: > 20 µM
IC50 (Histone deacetylase 3): 3 µM
IC50 [2]: > 20 µM
IC50 (Histone deacetylase 4): > 20 µM
IC50 (Histone deacetylase 1): 3 µM
IC50 (Histone deacetylase 11): > 20 µM

Nc1ccccc1NC(=O)c1ccc(CNC(=O)OCc2cccnc2)cc1 [ENTINOSTAT]
logD [3]: 2.5
Activity (Rattus norvegicus [4]): 75%
half-life [5]: 52 to 150 h
Activity (Rattus norvegicus [6]): 50%
Activity (Rattus norvegicus [7]): 25%
half-life [8]: 33.9 h
Drug uptake (Brain [9]): < 0.1%
logD [10]: 1.8
Drug uptake (Brain [11]): < 0.001%

CC(/C=C/C(=O)NO)=C\[C@@H](C)C(=O)c1ccc(N(C)C)cc1 [TRICHOSTATIN]
Activity (Rattus norvegicus [12]): <1 g/kg

O=C(CCCCCCC(=O)Nc1ccccc1)NO [VORINOSTAT]
Activity (Mus musculus [13]): 40%
Activity (Mus musculus [14]): 40%
Activity (Rattus norvegicus [15]): 20%
